Reference: ChEMBL document CHEMBL1201862, “PubChem BioAssay data set” (2004)
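1) Cells in 96-well plates. 2) Compound, 48 h, 5 concentrations. 3) Linear interpolation between surrounding doses. 4) Unreached endpoint = highest concentration. At the GI50, growth is halved.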 Activity calls are given as the source filed them. No stated cut-off is given here; in the data, active = GI50 up to about 1.1 µM and inactive = higher.

Experiments:
Assay in all cases: DTP human tumour cell line panel, 48 h
[1] = system: SW-620
[2] = system: HCT-116
[3] = system: Malme-3M
[4] = system: OVCAR-8
[5] = system: OVCAR-3
[6] = system: Hs-578T
[7] = system: NCI-H226
[8] = system: KM12
[9] = system: NCI-H23
[10] = system: SF-268
[11] = system: HCT-15
[12] = system: LOX IMVI
[13] = system: UACC-62
[14] = system: MCF7
[15] = system: MDA-MB-231
[16] = system: COLO 205
[17] = system: SK-MEL-5
[18] = system: NCI/ADR-RES

COc1cc(C=O)cc(/C=N/n2c3ccccc3c3ccccc32)c1O
GI50 [1]: 9.73 µM (inactive)
GI50 [2]: 10.9 µM (inactive)
GI50 [3]: 3.52 µM (inactive)
GI50 [4]: 8.09 µM (inactive)
GI50 [5]: 45.2 µM (inactive)
GI50 [6]: 6.81 µM (inactive)
GI50 [7]: 6.3 µM (inactive)
GI50 [8]: 35.8 µM (inactive)
GI50 [9]: 39.6 µM (inactive)
GI50 [10]: 4.34 µM (inactive)
GI50 [11]: 14.5 µM
GI50 [12]: 14.2 µM (inactive)
GI50 [13]: 6.67 µM (inactive)
GI50 [14]: 3.78 µM (inactive)
GI50 [15]: 17.4 µM (inactive)
GI50 [16]: 18.8 µM (inactive)

Cc1cn(C2OC(CO[Si](C)(C)C(C)(C)C)/C(=C\C#N)C2O[Si](C)(C)C(C)(C)C)c(=O)[nH]c1=O (stereo unspecified)
GI50 [1]: > 100 µM (inactive)
GI50 [2]: 22.9 µM (inactive)
GI50 [5]: 7.73 µM (inactive)
GI50 [6]: > 100 µM (inactive)
GI50 [7]: > 100 µM (inactive)
GI50 [8]: 27.1 µM (inactive)
GI50 [9]: > 100 µM (inactive)
GI50 [17]: 6.87 µM (inactive)
GI50 [10]: 92.5 µM (inactive)
GI50 [11]: 14.4 µM
GI50 [12]: 19.5 µM (inactive)
GI50 [13]: 44.4 µM (inactive)
GI50 [14]: 1.89 µM (inactive)
GI50 [15]: > 100 µM (inactive)
GI50 [16]: 12.5 µM (inactive)
GI50 [18]: > 100 µM (inactive)

Cc1cc(Cc2cc(C)c(NC(=O)C(=O)C3CCC4=C(SC5C=CC=CC5N4)C3=O)c(C(C)C)c2)cc(C(C)C)c1NC(=O)C(=O)C1CCC2=C(SC3C=CC=CC3N2)C1=O (stereo unspecified)
GI50 [1]: 38 µM (inactive)
GI50 [2]: 47 µM (inactive)
GI50 [4]: 29.7 µM (inactive)
GI50 [5]: 35 µM (inactive)
GI50 [7]: 31 µM (inactive)
GI50 [8]: 43.3 µM (inactive)
GI50 [9]: 41.4 µM (inactive)
GI50 [17]: 35.8 µM (inactive)
GI50 [10]: 74.8 µM (inactive)
GI50 [11]: 34.9 µM
GI50 [12]: 96.6 µM (inactive)
GI50 [13]: 53.1 µM (inactive)
GI50 [14]: 62.5 µM (inactive)
GI50 [15]: 95.9 µM (inactive)
GI50 [16]: 44.6 µM (inactive)
GI50 [18]: 35.5 µM (inactive)

O=C(N/C(=C\NC1=NCCS1)C(=O)N1CSC[C@@H]1C(=O)O)c1ccccc1
GI50 [1]: > 100 µM (inactive)
GI50 [2]: > 100 µM (inactive)
GI50 [4]: > 100 µM (inactive)
GI50 [5]: > 100 µM (inactive)
GI50 [7]: > 100 µM (inactive)
GI50 [8]: > 100 µM (inactive)
GI50 [9]: > 100 µM (inactive)
GI50 [17]: > 100 µM (inactive)
GI50 [10]: > 100 µM (inactive)
GI50 [11]: > 100 µM
GI50 [12]: > 100 µM (inactive)
GI50 [13]: > 100 µM (inactive)
GI50 [14]: > 100 µM (inactive)
GI50 [15]: > 100 µM (inactive)
GI50 [16]: > 100 µM (inactive)
GI50 [18]: > 100 µM (inactive)

COC1OC(COC(=O)NCCCCC(=O)C(F)(F)F)C(O)C(O)C1O (stereo unspecified)
GI50 [1]: > 100 µM (inactive)
GI50 [2]: > 100 µM (inactive)
GI50 [3]: > 100 µM (inactive)
GI50 [5]: > 100 µM (inactive)
GI50 [6]: > 100 µM (inactive)
GI50 [8]: > 100 µM (inactive)
GI50 [9]: > 100 µM (inactive)
GI50 [17]: > 100 µM (inactive)
GI50 [10]: > 100 µM (inactive)
GI50 [11]: > 100 µM
GI50 [12]: > 100 µM (inactive)
GI50 [13]: > 100 µM (inactive)
GI50 [14]: > 100 µM (inactive)
GI50 [15]: > 100 µM (inactive)
GI50 [16]: > 100 µM (inactive)
GI50 [18]: > 100 µM (inactive)

Cn1cc(NC(=O)c2cc(NC(=O)CNC(=N)N)cn2C)cc1C(=O)NCCC(=N)N [NETROPSIN CHLORIDE]
GI50 [1]: > 100 µM (inactive)
GI50 [2]: > 100 µM (inactive)
GI50 [3]: 41.7 µM (inactive)
GI50 [4]: > 100 µM (inactive)
GI50 [5]: > 100 µM (inactive)
GI50 [6]: > 100 µM (inactive)
GI50 [7]: > 100 µM (inactive)
GI50 [8]: > 100 µM (inactive)
GI50 [9]: > 100 µM (inactive)
GI50 [17]: > 100 µM (inactive)
GI50 [10]: > 100 µM (inactive)
GI50 [11]: > 100 µM
GI50 [12]: > 100 µM (inactive)
GI50 [13]: > 100 µM (inactive)
GI50 [14]: > 100 µM (inactive)
GI50 [16]: > 100 µM (inactive)
GI50 [18]: > 100 µM (inactive)

COC1(OC)CCCCCCCCC(OC)(OC)CCCCCCCC1
GI50 [1]: > 100 µM (inactive)
GI50 [2]: > 100 µM (inactive)
GI50 [3]: > 100 µM (inactive)
GI50 [4]: > 100 µM (inactive)
GI50 [5]: > 100 µM (inactive)
GI50 [6]: > 100 µM (inactive)
GI50 [7]: > 100 µM (inactive)
GI50 [8]: > 100 µM (inactive)
GI50 [9]: > 100 µM (inactive)
GI50 [17]: > 100 µM (inactive)
GI50 [10]: > 100 µM (inactive)
GI50 [11]: > 100 µM
GI50 [12]: > 100 µM (inactive)
GI50 [13]: > 100 µM (inactive)
GI50 [14]: > 100 µM (inactive)
GI50 [16]: > 100 µM (inactive)
GI50 [18]: > 100 µM (inactive)

O=S(=O)(O)c1cccc2cccc(/N=N/c3c(O)ccc4ccccc34)c12
GI50 [1]: > 100 µM (inactive)
GI50 [2]: > 100 µM (inactive)
GI50 [3]: > 100 µM (inactive)
GI50 [4]: > 100 µM (inactive)
GI50 [5]: > 100 µM (inactive)
GI50 [6]: > 100 µM (inactive)
GI50 [7]: > 100 µM (inactive)
GI50 [8]: > 100 µM (inactive)
GI50 [9]: > 100 µM (inactive)
GI50 [17]: > 100 µM (inactive)
GI50 [10]: > 100 µM (inactive)
GI50 [11]: > 100 µM
GI50 [13]: > 100 µM (inactive)
GI50 [14]: > 100 µM (inactive)
GI50 [15]: > 100 µM (inactive)
GI50 [16]: > 100 µM (inactive)
GI50 [18]: > 100 µM (inactive)
